# Test results reported in patent publication US20250215029A1 (Recludix Pharma, Inc., priority 2022, published 2025).
# Experiments:
# [1] = target: T1, pY705-STAT3 in PBMC (Homo sapiens, UniProt P40763); assay: MSD-pSTAT-PBMC Assay (pSTAT3, IL-6 stimulated); type: cell-based; conditions: PBMC, compound 3 hrs, then 10 ng/mL IL-6 for 10 min; Table 1114; read-out: pSTAT3
# T1 construct: Cryopreserved Peripheral Blood Mononuclear Cells (PBMC) are from AllCells; host or cells: cryopreserved PBMC
# Summary of the method: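 Cells are preincubated with compound for 3 hrs, then stimulated for 10 min, IL-4 at 1 ng/mL driving STAT6 phosphorylation and IL-6 at 10 ng/mL driving STAT3. Phospho-STAT in lysates is quantified by MSD immunoassay, and IC50 is fitted after subtracting unstimulated wells.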
# [2] = target: T2, pY641-STAT6 in PBMC (Homo sapiens, UniProt P42226); assay: MSD-pSTAT-PBMC Assay (pSTAT6, IL-4 stimulated); type: cell-based; conditions: PBMC, compound 3 hrs, then 1 ng/mL IL-4 for 10 min; Table 1114; read-out: pSTAT6
# T2 construct: Cryopreserved Peripheral Blood Mononuclear Cells (PBMC) are from AllCells; host or cells: cryopreserved PBMC
# T2 sequence (P42226 1-847): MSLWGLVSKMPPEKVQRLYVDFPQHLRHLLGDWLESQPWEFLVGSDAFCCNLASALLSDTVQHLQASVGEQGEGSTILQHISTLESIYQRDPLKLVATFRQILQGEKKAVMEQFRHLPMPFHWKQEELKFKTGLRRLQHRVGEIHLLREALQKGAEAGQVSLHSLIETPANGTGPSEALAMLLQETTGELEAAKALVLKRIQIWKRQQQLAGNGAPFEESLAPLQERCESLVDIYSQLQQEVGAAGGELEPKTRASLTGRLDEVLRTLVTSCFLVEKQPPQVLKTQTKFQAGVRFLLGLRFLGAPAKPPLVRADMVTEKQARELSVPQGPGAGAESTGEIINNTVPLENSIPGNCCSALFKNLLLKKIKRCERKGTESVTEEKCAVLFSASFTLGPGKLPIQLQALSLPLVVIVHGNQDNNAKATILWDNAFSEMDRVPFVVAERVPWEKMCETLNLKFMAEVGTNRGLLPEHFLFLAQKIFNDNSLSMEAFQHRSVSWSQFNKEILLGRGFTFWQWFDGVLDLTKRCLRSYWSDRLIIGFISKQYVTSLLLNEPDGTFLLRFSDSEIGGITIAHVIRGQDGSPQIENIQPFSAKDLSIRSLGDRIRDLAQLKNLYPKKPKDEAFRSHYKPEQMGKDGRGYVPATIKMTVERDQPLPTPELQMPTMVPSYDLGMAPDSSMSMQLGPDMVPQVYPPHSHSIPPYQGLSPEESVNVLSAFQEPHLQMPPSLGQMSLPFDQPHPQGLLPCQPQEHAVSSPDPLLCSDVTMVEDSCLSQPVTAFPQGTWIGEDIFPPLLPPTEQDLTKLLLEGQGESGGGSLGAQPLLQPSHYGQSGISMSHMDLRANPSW
# Summary of the method: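 MSD electrochemiluminescence read-out: total STAT captured, probed with anti-pY641-STAT6 or anti-pY705-STAT3. Human PBMC, 3 h compound pretreatment, 10 min stimulation (IL-4 1 ng/mL or IL-6 10 ng/mL). Unstimulated signal subtracted, DMSO-normalized, variable-slope IC50.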
# T1 sequence (P40763 whole entry): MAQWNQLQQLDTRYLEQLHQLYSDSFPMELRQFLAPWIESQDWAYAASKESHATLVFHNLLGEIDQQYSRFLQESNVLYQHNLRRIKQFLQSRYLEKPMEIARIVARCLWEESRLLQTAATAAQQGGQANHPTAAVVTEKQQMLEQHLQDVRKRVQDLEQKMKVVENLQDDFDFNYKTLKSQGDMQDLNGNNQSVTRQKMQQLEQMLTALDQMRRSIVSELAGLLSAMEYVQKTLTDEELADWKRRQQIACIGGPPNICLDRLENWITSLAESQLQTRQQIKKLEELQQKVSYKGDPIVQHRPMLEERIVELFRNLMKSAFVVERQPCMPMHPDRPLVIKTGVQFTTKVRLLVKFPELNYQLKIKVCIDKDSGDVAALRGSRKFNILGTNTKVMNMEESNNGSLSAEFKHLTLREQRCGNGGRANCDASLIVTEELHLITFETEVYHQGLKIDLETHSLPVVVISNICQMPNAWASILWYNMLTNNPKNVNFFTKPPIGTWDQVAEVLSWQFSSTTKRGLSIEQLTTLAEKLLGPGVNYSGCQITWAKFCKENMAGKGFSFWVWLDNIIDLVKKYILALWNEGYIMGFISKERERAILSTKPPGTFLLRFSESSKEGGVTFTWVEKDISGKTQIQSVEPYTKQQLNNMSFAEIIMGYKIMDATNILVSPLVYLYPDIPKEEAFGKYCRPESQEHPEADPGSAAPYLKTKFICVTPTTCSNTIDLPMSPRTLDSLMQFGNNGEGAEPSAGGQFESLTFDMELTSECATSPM
IC50 [1],IC50 [2],Structure (SMILES)
< 100 nM,> 3000 nM,"CC(C)OC(=O)OCOP(=O)(Cc1ccc2sc(C(=O)N[C@H]3CCCC4CC[C@@H](C(=O)N5CC(c6cccnc6)C5)N4C3=O)cc2c1)OCOC(=O)OC(C)C (stereo partly drawn) [Compound 158, diisopropyl (((((2-(((3S,6S,9aS)-5-oxo-3-(3-(pyridin-3-yl)azetidine-1-carbonyl)octahydro-1H-pyrrolo[1,2-a]azepin-6-yl)carbamoyl)benzo [b]thiophen-5-yl)methyl)phosphoryl)bis (oxy))bis(methyl-ene))bis(carbonate)]"
< 100 nM,< 100 nM,"CC(C)CC(=O)SCCOP(=O)(OCCSC(=O)CC(C)C)C(F)(F)c1ccc2ccc(C(=O)N[C@H]3CCCC[C@H]4CC[C@@H](C(=O)N5CCC(c6cc[nH]c(=O)c6)C5)N4C3=O)cc2c1 (stereo partly drawn) [Compound 160, S,S′-((((difluoro(7-(((3S,6S,10aS)-5-oxo-3-(3-(2-oxo-1,2-dihydropyridin-4-yl)pyrrolidine-1-carbonyl)decahydropyrrolo [1,2-a]azocin-6-yl)carbamoyl)naphthalen-2-yl)methyl)phosphoryl)bis(oxy))bis(ethane-2,1-diyl)) bis(3-methylbutane thioate)]"
< 100 nM,> 3000 nM,"CC(C)CC(=O)SCCOP(=O)(OCCSC(=O)CC(C)C)C(F)(F)c1ccc2sc(C(=O)N[C@H]3CCCC(C)[C@H]4CC[C@@H](C(=O)N5CC(c6cccnc6)C5)N4C3=O)cc2c1 (stereo partly drawn) [Compound 161, S,S′-((((difluoro(2-(((3S,6S,10aR)-10-methyl-5-oxo-3-(3-(pyridin-3-yl)azetidine-1-carbonyl)decahydropyrrolo [1,2-a]azocin-6-yl)carbamoyl)benzo[b]thiophen-5-yl)methyl)phosphoryl)bis(oxy))bis(ethane-2,1-diyl)) bis(3-methylbutane thioate)]"
100 to 1000 nM,< 100 nM,"CC(C)(C)C(=O)OCOP(=O)(OCOC(=O)C(C)(C)C)C(F)(F)c1ccc2sc(C(=O)NC3CCCCC4CCCC(C(=O)N5CC(C#N)C(c6ccccc6)C5)N4C3=O)cc2c1 [Compound 169, ((((2-(((4S,7S,11aS)-4-((rel- trans)-3-cyano-4-phenylpyrrolidine-1-carbonyl)-6-oxodecahydro-2H-pyrido[1,2-a]azocin-7-yl)carbamoyl)benzo[b]thiophen-5-yl)difluoromethyl)phosphroyl)bis(oxy)) bis(methylene) bis(2,2-dimethylpropaneoate)]"
100 to 1000 nM,< 100 nM,"CC(C)(C)C(=O)OCOP(=O)(OCOC(=O)C(C)(C)C)C(F)(F)c1ccc2sc(C(=O)N[C@H]3CCC[C@H]4CCC[C@@H](C(=O)N5CC(C#N)C(c6ccccc6)C5)N4C3=O)cc2c1 (stereo partly drawn) [Compound 170, ((((2-(((4S,7S,10aS)-4-(rel-(trans)-3-cyano-4-phenylpyrrolidine-1-carbonyl)-6-oxodecahydropyrido [1,2-a]azepin-7-yl)carbamoyl)benzo[b]thiophen-5-yl)difluoromethyl)phosphoryl)bis(oxy)) bis(methylene) bis(2,2-dimethylpropanoate)]"
> 3000 nM,> 3000 nM,"CC(C)(C)C(=O)OCOP(=O)(OCOC(=O)C(C)(C)C)C(F)(F)c1ccc2sc(C(=O)N[C@H]3CCCC[C@H]4CCC[C@@H](C(=O)N5CC(n6ccnc6)C5)N4C3=O)cc2c1 [Compound 171, ((((2-(((4S,7S,11aS)-4-(3-(1H-imidazol-1-yl)azetidine-1-carbonyl)-6-oxodecahydro-2H-pyrido[1,2-a]azocin-7-yl)carbamoyl)benzo[b]thiophen-5-yl)difluoromethyl)phosphoryl)bis(oxy)) bis(methylene) bis(2,2-dimethylpropanoate)]"
< 100 nM,1000 to 3000 nM,"CC(C)(C)C(=O)OCOP(=O)(OCOC(=O)C(C)(C)C)C(F)(F)c1ccc2sc(C(=O)N[C@H]3CCCC[C@H]4CCC[C@@H](C(=O)N5CC(C(=O)N6CCOCC6)C5)N4C3=O)cc2c1 [Compound 172, (((difluoro(2-(((4S,7S,11aS)-4-(3-(morpholine-4-carbonyl)azetidine-1-carbonyl)-6-oxodecahydro-2H-pyrido[1,2-a]azocin-7-yl)carbamoyl)benzo[b]thiophen-5-yl)methyl)phosphoryl)bis(oxy))bis(methylene) bis(2,2-dimethylpropanoate)]"
100 to 1000 nM,> 3000 nM,"CC(C)(C)C(=O)OCOP(=O)(OCOC(=O)C(C)(C)C)C(F)(F)c1ccc2sc(C(=O)N[C@H]3CCC[C@H]4CCC[C@@H](C(=O)N5CC(n6ccnc6)C5)N4C3=O)cc2c1 [Compound 173, ((((2-(((4S,7S,10aS)-4-(3-(1H-imidazol-1-yl)azetidine-1-carbonyl)-6-oxodecahydropyrido [1,2-a]azepin-7-yl)carbamoyl)benzo[b]thiophen-5-yl)difluoromethyl)phosphoryl)bis(oxy)) bis(methylene) bis(2,2-dimethylpropanoate)]"
< 100 nM,100 to 1000 nM,"CC(C)(C)C(=O)OCOP(=O)(OCOC(=O)C(C)(C)C)C(F)(F)c1ccc2sc(C(=O)N[C@H]3CCCC[C@H]4CC[C@@H](C(=O)N5CC(F)(c6ccccc6)C5)N4C3=O)cc2c1 [Compound 174, (((difluoro(2-(((3S,6S,10aS)-3-(3-fluoro-3-phenylazetidine-1-carbonyl)-5-oxodecahydropyrrolo [1,2-a]azocin-6-yl)carbamoyl)benzo[b]thiophen-5-yl)methyl)phosphoryl)bis(oxy)) bis(methylene) bis(2,2-dimethylpropanoate)]"
< 100 nM,1000 to 3000 nM,"CC(C)CC(=O)SCCOP(=O)(OCCSC(=O)CC(C)C)C(F)(F)c1ccc2sc(C(=O)N[C@H]3CCC[C@H]4CC[C@@H](C(=O)N5CC(c6cccnc6)C5)N4C3=O)cc2c1 [Compound 177, S,S′-((((difluoro(2-(((3S,6S,9aS)-5-oxo-3-(3-(pyridin-3-yl)azetidine-1-carbonyl)octahydro-1H-pyrrolo[1,2-a]azepin-6-yl)carbamoyl)benzo[b]thiophen-5-yl)methyl)phosphoryl)bis(oxy))bis(ethane-2,1-diyl)) bis(3-methylbutane thioate)]"
< 100 nM,> 3000 nM,"CC(C)OC(=O)OCOP(=O)(OCOC(=O)OC(C)C)C(F)(F)c1ccc2sc(C(=O)N[C@H]3CCC[C@H]4CC[C@@H](C(=O)N5CC(c6cccnc6)C5)N4C3=O)cc2c1 [Compound 180, (((difluoro(2-(((3S,6S,9aS)-5-oxo-3-(3-(pyridin-3-yl)azetidine-1-carbonyl)octahydro-1H-pyrrolo[1,2-a]azepin-6-yl)carbamoyl)benzo[b]thiophen-5-yl)methyl)phosphoryl)bis(oxy)) bis(methylene) diisopropyl bis(carbonate)]"
< 100 nM,> 3000 nM,"CC(C)(C)C(=O)SCCOP(=O)(OCCSC(=O)C(C)(C)C)C(F)(F)c1ccc2sc(C(=O)N[C@H]3CCCC[C@H]4CC[C@@H](C(=O)N5CC(c6cccnc6)C5)N4C3=O)cc2c1 [Compound 181, S,S′-((((difluoro(2-(((3S,6S,10aS)-5-oxo-3-(3-(pyridin-3-yl)azetidine-1-carbonyl)decahydro-pyrrolo[1,2-a]azocin-6-yl)carbamoyl)benzo[b]thiophen-5-yl)methyl)phosphoryl)bis(oxy))bis(ethane-2,1-diyl)) bis(2,2-dimethylpropanethioate)]"

Structure (SMILES),IC50 [1],IC50 [2]
"CCCC(=O)SCCOP(=O)(OCCSC(=O)CCC)C(F)(F)c1ccc2sc(C(=O)NC3CCCC4CCC(C(=O)N5CC(c6cccnc6)C5)N4C3=O)cc2c1 [Compound 179, S,S′-((((difluoro(2-(((3S,6S,9aS)-5-oxo-3-(3-(pyridin-3-yl)azetidine-1-carbonyl)octahydro-1H-pyrrolo[1,2-a]azepin-6-yl)carbamoyl)benzo[b]thiophen-5-yl)methyl)phosphoryl)bis(oxy))bis(ethane-2,1-diyl)) dibutanethioate]",< 100 nM,1000 to 3000 nM
